Assay [1] relates to GALAP (Galium). The assay can be described thus: Preemergence herbicidal evaluation. The settings on record: rated 4-5 weeks after treatment; for GALAP rating: preemergence, 0-9 scale. It counts as in vivo, Galium aparine. In outline:
(§1)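 Scores use a 0–9 visual scale covering stand, vigor, malformation, size and chlorosis relative to controls, rated four to five weeks after treatment. Before emergence, soil-planted seeds were sprayed with compound in aqueous acetone at roughly 0.0156–0.500 kg/ha and held in the greenhouse.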

For assay [2], the system named is ECHCG (Barnyardgrass). The assay can be described thus: Preemergence herbicidal evaluation. The class given is in vivo, Echinochloa crus-galli. The settings on record: rated 4-5 weeks after treatment; for ECHCG rating: preemergence, 0-9 scale. In outline:
as §1

Assay [3] has as its system IPOHE (Morningglory, Ivyleaf). Description: Postemergence herbicidal evaluation. As to conditions: postemergence. It counts as in vivo, Ipomoea hederacea. In outline:
(§2)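 Two-week seedlings sprayed postemergence at 40 psi; formulation: 1:1 acetone/water, 0.5% TWEEN 20; application ≈0.0156–0.500 kg/ha. Greenhouse grow-out, then 0–9 visual scoring at 4–5 weeks.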

The subject of assay [4] is CHEAL (Lambsquarters, Common). Description: Postemergence herbicidal evaluation. It counts as in vivo, Chenopodium album. As to conditions: postemergence. In outline: as §2
Assay [5] relates to GLXMAW (Soybean, Williams). The assay can be described thus: Preemergence herbicidal evaluation. As to conditions: rated 4-5 weeks after treatment; for GLXMAW rating: preemergence, 0-9 scale. It counts as in vivo, Glycine max, (L.) Merr. cv Williams. In outline: as §1

For the compound `CCOC(=O)CN1C(=O)C(CC(=O)OCCF)SC1=Nc1cc(-n2c(=O)cc(C(F)(F)F)n(C)c2=O)c(F)cc1Cl` (centres unmarked) [Compound 82, 2-{{2-Chloro-5-[3,6-dihydro-3-methyl-2,6-dioxo-4-(trifluoromethyl)-1(2H)-pyrimidinyl]-4-fluoro-phenyl}imino}-4-oxo-3,5-thiazolidinediacetic acid, 3-ethyl 2-fluoroethyl ester], the GALAP rating was 0.0 in assay [1] (0.0156 kg/ha); 0.0 in assay [1] (0.0313 kg/ha); 0.0 in assay [1] (0.0625 kg/ha); 9.0 in assay [1] (0.1250 kg/ha); 9.0 in assay [1] (0.2500 kg/ha). For the same compound, the ECHCG rating is given as 0.0 in assay [2] (0.0156 kg/ha); 0.0 in assay [2] (0.0313 kg/ha); 0.0 in assay [2] (0.0625 kg/ha); 3.0 in assay [2] (0.1250 kg/ha); 7.0 in assay [2] (0.2500 kg/ha). Moreover, the IPOHE herbicidal rating in assay [3] (rate 0.0158 kg/ha), in assay [3] (rate 0.0315 kg/ha) and in assay [3] (rate 0.0630 kg/ha) was 9.0 throughout. The CHEAL herbicidal rating in assay [4] (rate 0.0158 kg/ha) came to 7.0; in assay [4] (rate 0.0315 kg/ha), 9.0; in assay [4] (rate 0.0630 kg/ha), 9.0. The GLXMAW rating in assay [5] (0.0156 kg/ha) amounted to 0.0; in assay [5] (0.0313 kg/ha), 0.0; in assay [5] (0.0625 kg/ha), 0.0; in assay [5] (0.1250 kg/ha), 0.0; in assay [5] (0.2500 kg/ha), 5.0.

For `C=CCOC(=O)CN1C(=O)CSC1=Nc1cc(-n2c(=O)cc(C(F)(F)F)n(C)c2=O)c(F)cc1Cl` [Compound 106, Allyl 2-{{2-chloro-5-[3,6-dihydro-3-methyl-2,6-dioxo-4-(trifluoromethyl)-1(2H)-pyrimidinyl]-4-fluorophenyl}imino}-4-oxo-3-thiazolidineacetate], the GALAP rating turned out to be 2.0 in assay [1] (0.0313 kg/ha), 3.0 in assay [1] (0.0625 kg/ha), 6.0 in assay [1] (0.1250 kg/ha) and 7.0 in assay [1] (0.2500 kg/ha). Besides, the “Preemergence herbicidal rating GALAP” value in assay [1] (rate 0.0156 kg/ha) was 1.0. Besides, the ECHCG rating in assay [2] (0.0313 kg/ha) stood at 1.0; in assay [2] (0.0625 kg/ha), 1.5; in assay [2] (0.1250 kg/ha), 2.0; in assay [2] (0.2500 kg/ha), 7.0. The “Preemergence herbicidal rating ECHCG” value in assay [2] (rate 0.0156 kg/ha) is 0.0. In addition, the “herbicidal rating IPOHE” value in assay [3] (rate 0.0158 kg/ha), in assay [3] (rate 0.0315 kg/ha) and in assay [3] (rate 0.0630 kg/ha) was 9.0 in each case. In addition, the “herbicidal rating CHEAL” value in assay [4] (rate 0.0158 kg/ha), in assay [4] (rate 0.0315 kg/ha) and in assay [4] (rate 0.0630 kg/ha) was 7.0 in each case. Also, the GLXMAW rating is given as 1.5 in assay [5] (0.0313 kg/ha), 2.0 in assay [5] (0.0625 kg/ha), 3.5 in assay [5] (0.1250 kg/ha) and 5.0 in assay [5] (0.2500 kg/ha). Moreover, in assay [5] (rate 0.0156 kg/ha), the “Preemergence herbicidal rating GLXMAW” value came out at 1.0.

Consider `COCCOC(=O)CN1C(=O)CSC1=Nc1cc(-n2c(=O)cc(C(F)(F)F)n(C)c2=O)c(F)cc1Cl` [Compound 107, 2-Methoxyethyl 2-{{2-chloro-5-[3,6-dihydro-3-methyl-2,6-dioxo-4-(trifluoromethyl)-1(2H)-pyrimidinyl]-4-fluorophenyl}imino}-4-oxo-3-thiazolidineacetate], for which the “Preemergence herbicidal rating GALAP” value in assay [1] (rate 0.0313 kg/ha) is recorded as 1.0; in assay [1] (rate 0.0625 kg/ha), 1.0; in assay [1] (rate 0.1250 kg/ha), 7.0; in assay [1] (rate 0.2500 kg/ha), 7.0. Also, the “Preemergence herbicidal rating ECHCG” value in assay [2] (rate 0.0313 kg/ha) was found to be 0.0; in assay [2] (rate 0.0625 kg/ha), 0.0; in assay [2] (rate 0.1250 kg/ha), 0.0; in assay [2] (rate 0.2500 kg/ha), 1.0. Further, the entries for the “herbicidal rating IPOHE” value in assay [3] (rate 0.0158 kg/ha), in assay [3] (rate 0.0315 kg/ha) and in assay [3] (rate 0.0630 kg/ha) were 9.0, 7.0 and 9.0, respectively. Also, the “herbicidal rating CHEAL” value in assay [4] (rate 0.0158 kg/ha) is reported as 2.0; in assay [4] (rate 0.0315 kg/ha) it was 2.0; in assay [4] (rate 0.0630 kg/ha) it was 1.0. Moreover, the “Preemergence herbicidal rating GLXMAW” value in assay [5] (rate 0.0313 kg/ha) was 0.0; in assay [5] (rate 0.0625 kg/ha), 1.0; in assay [5] (rate 0.1250 kg/ha), 2.0; in assay [5] (rate 0.2500 kg/ha), 3.0.

Turning to `CCCCOC(=O)CN1C(=O)CSC1=Nc1cc(-n2c(=O)cc(C(F)(F)F)n(C)c2=O)c(F)cc1Cl` [Compound 111], the “Preemergence herbicidal rating GALAP” value in assay [1] (rate 0.0156 kg/ha) was determined as 0.0; in assay [1] (rate 0.0313 kg/ha), 0.0; in assay [1] (rate 0.0625 kg/ha), 0.0; in assay [1] (rate 0.1250 kg/ha), 6.0; in assay [1] (rate 0.2500 kg/ha) it was 7.0. Further, the “Preemergence herbicidal rating ECHCG” value in assay [2] (rate 0.0156 kg/ha) was determined as 0.0; in assay [2] (rate 0.0313 kg/ha), 0.0; in assay [2] (rate 0.0625 kg/ha), 0.0; in assay [2] (rate 0.1250 kg/ha) it was 0.0; in assay [2] (rate 0.2500 kg/ha), 4.0. Also, the “herbicidal rating IPOHE” value in assay [3] (rate 0.0158 kg/ha) turned out to be 4.0; in assay [3] (rate 0.0315 kg/ha), 9.0; in assay [3] (rate 0.0630 kg/ha) it was 9.0. The “herbicidal rating CHEAL” value was determined as 2.0 in assay [4] (rate 0.0158 kg/ha), 6.0 in assay [4] (rate 0.0315 kg/ha) and 7.0 in assay [4] (rate 0.0630 kg/ha). In addition, the “Preemergence herbicidal rating GLXMAW” value in assay [5] (rate 0.0156 kg/ha) is given as 1.0; in assay [5] (rate 0.0313 kg/ha) it was 1.0; in assay [5] (rate 0.0625 kg/ha), 1.0; in assay [5] (rate 0.1250 kg/ha), 3.0; in assay [5] (rate 0.2500 kg/ha), 4.0.

For `Cn1c(C(F)(F)F)cc(=O)n(-c2cc(N=C3SCC(=O)N3Cc3ccco3)c(Cl)cc2F)c1=O` [Compound 122, 3-{4-Chloro-2-fluoro-5-[(3-furfuryl-4-oxo-2-thiazolidinylidene)amino]phenyl}-1-methyl-6-(trifluoromethyl)-2,4(1H,3H)-pyrimidinedione], the “Preemergence herbicidal rating GALAP” value in assay [1] (rate 0.0156 kg/ha) is recorded as 3.0; in assay [1] (rate 0.0313 kg/ha), 2.0; in assay [1] (rate 0.0625 kg/ha) it was 3.0; in assay [1] (rate 0.1250 kg/ha), 4.0; in assay [1] (rate 0.2500 kg/ha), 4.0; in assay [1] (rate 0.5000 kg/ha) it was 6.0. Also, the “Preemergence herbicidal rating ECHCG” value is recorded as 0.0 in assay [2] (rate 0.0156 kg/ha); 0.0 in assay [2] (rate 0.0313 kg/ha); 0.0 in assay [2] (rate 0.0625 kg/ha); 0.0 in assay [2] (rate 0.1250 kg/ha); 0.0 in assay [2] (rate 0.2500 kg/ha); 1.0 in assay [2] (rate 0.5000 kg/ha). Moreover, the “herbicidal rating IPOHE” value in assay [3] (rate 0.0156 kg/ha), in assay [3] (rate 0.0313 kg/ha), in assay [3] (rate 0.0625 kg/ha) and in assay [3] (rate 0.1250 kg/ha) was 9.0 in each case. Also, the “herbicidal rating CHEAL” value came to 6.0 in assay [4] (rate 0.0156 kg/ha), 9.0 in assay [4] (rate 0.0313 kg/ha), 9.0 in assay [4] (rate 0.0625 kg/ha) and 9.0 in assay [4] (rate 0.1250 kg/ha). The “Preemergence herbicidal rating GLXMAW” value in assay [5] (rate 0.0156 kg/ha) was found to be 0.0; in assay [5] (rate 0.0313 kg/ha) it was 0.0; in assay [5] (rate 0.0625 kg/ha) it was 1.0; in assay [5] (rate 0.1250 kg/ha), 0.0; in assay [5] (rate 0.2500 kg/ha) it was 0.0; in assay [5] (rate 0.5000 kg/ha) it was 0.0.

Regarding `Cn1c(C(F)(F)F)cc(=O)n(-c2cc(N=C3SCC(=O)N3CC(=O)OCC3CC3)c(Cl)cc2F)c1=O` [Compound 124, Cyclopropylmethyl 2-{{2-chloro-5-[3,6-dihydro-3-methyl-2,6-dioxo-4-(trifluoromethyl)-1(2H)-pyrimidinyl]-4-fluorophenyl}imino}-4-oxo-3-thiazolidineacetate], the “Preemergence herbicidal rating GALAP” value came out at 0.0 in assay [1] (rate 0.0156 kg/ha); 0.0 in assay [1] (rate 0.0313 kg/ha); 0.0 in assay [1] (rate 0.0625 kg/ha); 0.0 in assay [1] (rate 0.1250 kg/ha); 6.0 in assay [1] (rate 0.2500 kg/ha); 7.0 in assay [1] (rate 0.5000 kg/ha). Also, the “Preemergence herbicidal rating ECHCG” value in assay [2] (rate 0.0156 kg/ha) amounted to 0.0; in assay [2] (rate 0.0313 kg/ha), 0.0; in assay [2] (rate 0.0625 kg/ha) it was 0.0; in assay [2] (rate 0.1250 kg/ha), 0.0; in assay [2] (rate 0.2500 kg/ha), 0.0; in assay [2] (rate 0.5000 kg/ha), 1.0. Moreover, the “herbicidal rating IPOHE” value in assay [3] (rate 0.0156 kg/ha), in assay [3] (rate 0.0313 kg/ha) and in assay [3] (rate 0.0625 kg/ha) was 9.0 each time. Also, the “herbicidal rating CHEAL” value in assay [4] (rate 0.0156 kg/ha), in assay [4] (rate 0.0313 kg/ha) and in assay [4] (rate 0.0625 kg/ha) was 9.0 each time. For the same compound, the “Preemergence herbicidal rating GLXMAW” value was determined as 0.0 in assay [5] (rate 0.0156 kg/ha); 0.0 in assay [5] (rate 0.0313 kg/ha); 0.0 in assay [5] (rate 0.0625 kg/ha); 0.0 in assay [5] (rate 0.1250 kg/ha); 0.0 in assay [5] (rate 0.2500 kg/ha); 3.0 in assay [5] (rate 0.5000 kg/ha).

Source of the values: US20020137929A1, “1 - (3-heterocyclylphenyl) isothiourea, -isourea, -guanidine and -amidine herbicidal agents” (Intellectual Property Department, BASF Aktiengesellschaft, priority 1998, published 2002).
